Patent US20260132140A1, “IMIDAZOLYL-AMINO-PYRAZINE-CARBONITRILS AS CHK-1 INHIBITORS” (BenevolentAI Bio Limited, priority 2022, published 2026)
Read-outs that look alike come from different tables or passages of the source.

What was measured:
human Chk2 kinase = human Chk2 kinase (Homo sapiens, UniProt O96017); experiment: biochemical
human Chk1 kinase [1] = molecular target: T1, human Chk1 kinase (Homo sapiens, UniProt O14757); experiment: Human Chk1 HTRF (Homogeneous Time Resolved Fluorescence) enzyme assay; conditions: 1 nM Chk-1, 30 μM ATP
T1 sequence (O14757 1-476): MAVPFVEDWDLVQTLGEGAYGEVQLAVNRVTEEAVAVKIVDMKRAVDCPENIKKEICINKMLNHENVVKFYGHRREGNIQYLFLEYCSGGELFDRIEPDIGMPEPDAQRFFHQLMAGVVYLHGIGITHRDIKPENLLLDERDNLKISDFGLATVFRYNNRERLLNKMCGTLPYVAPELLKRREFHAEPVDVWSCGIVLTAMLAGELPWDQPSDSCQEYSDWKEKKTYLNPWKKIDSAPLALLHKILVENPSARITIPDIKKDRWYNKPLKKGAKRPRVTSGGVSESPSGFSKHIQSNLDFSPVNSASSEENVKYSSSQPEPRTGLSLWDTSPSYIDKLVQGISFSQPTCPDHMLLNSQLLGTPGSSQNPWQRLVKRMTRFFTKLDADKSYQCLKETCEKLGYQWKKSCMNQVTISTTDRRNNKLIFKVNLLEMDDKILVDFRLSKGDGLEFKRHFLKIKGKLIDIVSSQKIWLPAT

RSK4 = molecular target: T2, RSK4 (Homo sapiens, UniProt Q9UK32); experiment: RSK1-4 kinase assay (Eurofins KinaseProfiler, radiometric): RSK4; format: biochemical; conditions: approximately ATP Km
T2 construct: purchased Eurofins (KinaseProfiler service)
T2 sequence (Q9UK32 whole entry): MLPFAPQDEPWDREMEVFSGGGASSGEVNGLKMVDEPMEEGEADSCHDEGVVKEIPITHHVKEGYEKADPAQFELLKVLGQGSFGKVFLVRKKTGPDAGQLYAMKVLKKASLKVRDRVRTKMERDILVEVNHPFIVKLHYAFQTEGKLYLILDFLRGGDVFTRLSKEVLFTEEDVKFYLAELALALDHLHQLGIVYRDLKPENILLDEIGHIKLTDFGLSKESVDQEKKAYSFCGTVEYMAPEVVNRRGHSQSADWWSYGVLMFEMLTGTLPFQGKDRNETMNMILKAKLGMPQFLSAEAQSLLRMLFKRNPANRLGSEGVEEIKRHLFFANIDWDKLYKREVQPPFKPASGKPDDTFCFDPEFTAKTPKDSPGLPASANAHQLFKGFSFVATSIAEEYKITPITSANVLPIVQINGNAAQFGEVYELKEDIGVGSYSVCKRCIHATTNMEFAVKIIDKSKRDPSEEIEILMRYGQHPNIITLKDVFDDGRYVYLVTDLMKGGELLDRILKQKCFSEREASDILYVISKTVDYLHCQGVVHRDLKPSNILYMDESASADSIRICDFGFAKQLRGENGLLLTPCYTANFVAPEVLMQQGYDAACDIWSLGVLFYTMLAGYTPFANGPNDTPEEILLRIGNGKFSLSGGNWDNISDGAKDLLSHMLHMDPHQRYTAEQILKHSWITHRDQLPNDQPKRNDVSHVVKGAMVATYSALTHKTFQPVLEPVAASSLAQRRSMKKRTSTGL
From the text: (§1) The radiometric kinase activity assays were run at approximately the ATP Km for each kinase and the IC50 data is shown in Table 24.

[2] = molecular target: P-glycoprotein (P-gp, MDR1) (Homo sapiens, UniProt P08183); experiment: in vitro; conditions: dog, MDCK-MDR1, pH 7.4
Chain of P-glycoprotein (P-gp, MDR1) (P08183 whole entry): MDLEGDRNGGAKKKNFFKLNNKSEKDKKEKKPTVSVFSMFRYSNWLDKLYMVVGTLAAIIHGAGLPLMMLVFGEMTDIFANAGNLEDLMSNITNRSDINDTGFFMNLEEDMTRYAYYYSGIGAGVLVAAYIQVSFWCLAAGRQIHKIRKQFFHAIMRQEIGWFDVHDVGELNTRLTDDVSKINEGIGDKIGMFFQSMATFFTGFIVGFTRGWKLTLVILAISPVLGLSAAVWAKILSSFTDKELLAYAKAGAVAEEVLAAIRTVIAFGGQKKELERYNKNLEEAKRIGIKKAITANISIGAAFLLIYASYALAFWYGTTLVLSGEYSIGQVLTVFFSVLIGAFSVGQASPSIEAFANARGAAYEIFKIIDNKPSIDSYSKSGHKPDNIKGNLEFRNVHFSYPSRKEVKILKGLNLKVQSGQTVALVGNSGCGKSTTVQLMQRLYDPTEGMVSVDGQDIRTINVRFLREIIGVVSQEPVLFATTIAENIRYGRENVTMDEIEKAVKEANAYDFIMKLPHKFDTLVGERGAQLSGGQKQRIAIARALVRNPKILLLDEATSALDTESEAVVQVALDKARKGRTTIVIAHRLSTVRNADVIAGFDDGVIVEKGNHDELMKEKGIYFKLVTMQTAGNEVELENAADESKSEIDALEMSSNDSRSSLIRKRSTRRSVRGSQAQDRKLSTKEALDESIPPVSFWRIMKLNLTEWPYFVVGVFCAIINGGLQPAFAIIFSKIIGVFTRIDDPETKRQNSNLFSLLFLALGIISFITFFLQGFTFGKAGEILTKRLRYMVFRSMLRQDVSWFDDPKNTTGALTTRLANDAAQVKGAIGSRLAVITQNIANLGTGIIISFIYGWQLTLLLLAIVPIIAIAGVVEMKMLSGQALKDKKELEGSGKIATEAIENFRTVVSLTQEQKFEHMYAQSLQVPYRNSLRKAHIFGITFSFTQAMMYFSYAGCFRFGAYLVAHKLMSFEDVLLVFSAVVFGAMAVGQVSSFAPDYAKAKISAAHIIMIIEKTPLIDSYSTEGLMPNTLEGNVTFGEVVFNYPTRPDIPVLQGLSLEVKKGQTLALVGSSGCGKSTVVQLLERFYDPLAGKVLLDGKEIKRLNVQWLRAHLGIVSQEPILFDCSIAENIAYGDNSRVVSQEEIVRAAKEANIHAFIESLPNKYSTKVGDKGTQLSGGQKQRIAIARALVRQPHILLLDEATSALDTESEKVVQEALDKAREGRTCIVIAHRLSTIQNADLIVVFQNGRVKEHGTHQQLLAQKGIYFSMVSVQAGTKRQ

in vitro = conditions: dog, MDCK, pH 7.4
RSK3 = molecular target: T3, RSK3 (Homo sapiens, UniProt Q15349); experiment: RSK1-4 kinase assay (Eurofins KinaseProfiler, radiometric): RSK3; format: biochemical; conditions: approximately ATP Km
T3 construct: purchased Eurofins (KinaseProfiler service)
T3 sequence (Q15349 whole entry): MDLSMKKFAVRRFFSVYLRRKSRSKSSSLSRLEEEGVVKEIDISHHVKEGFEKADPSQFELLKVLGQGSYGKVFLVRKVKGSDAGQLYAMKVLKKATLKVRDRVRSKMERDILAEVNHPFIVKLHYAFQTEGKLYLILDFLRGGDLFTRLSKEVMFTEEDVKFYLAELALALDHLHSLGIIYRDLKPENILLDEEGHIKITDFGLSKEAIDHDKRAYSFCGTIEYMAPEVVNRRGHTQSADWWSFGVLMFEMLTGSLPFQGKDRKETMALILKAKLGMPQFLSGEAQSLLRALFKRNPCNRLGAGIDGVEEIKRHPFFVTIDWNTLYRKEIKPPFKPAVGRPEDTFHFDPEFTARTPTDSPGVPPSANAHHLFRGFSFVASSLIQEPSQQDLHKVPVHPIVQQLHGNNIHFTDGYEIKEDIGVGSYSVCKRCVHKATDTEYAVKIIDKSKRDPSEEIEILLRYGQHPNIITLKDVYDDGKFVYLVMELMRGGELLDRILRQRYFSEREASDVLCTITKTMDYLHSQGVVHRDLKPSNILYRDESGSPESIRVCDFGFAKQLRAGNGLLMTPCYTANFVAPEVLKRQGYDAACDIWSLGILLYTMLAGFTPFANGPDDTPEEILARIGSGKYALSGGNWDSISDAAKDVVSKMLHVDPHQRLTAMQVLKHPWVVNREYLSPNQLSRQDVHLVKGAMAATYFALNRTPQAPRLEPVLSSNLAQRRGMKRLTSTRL
From the text: as §1

RSK2 = molecular target: T4, RSK2 (Homo sapiens, UniProt P51812); experiment: RSK1-4 kinase assay (Eurofins KinaseProfiler, radiometric): RSK2; format: biochemical; conditions: approximately ATP Km
T4 construct: purchased Eurofins (KinaseProfiler service)
T4 sequence (P51812 whole entry): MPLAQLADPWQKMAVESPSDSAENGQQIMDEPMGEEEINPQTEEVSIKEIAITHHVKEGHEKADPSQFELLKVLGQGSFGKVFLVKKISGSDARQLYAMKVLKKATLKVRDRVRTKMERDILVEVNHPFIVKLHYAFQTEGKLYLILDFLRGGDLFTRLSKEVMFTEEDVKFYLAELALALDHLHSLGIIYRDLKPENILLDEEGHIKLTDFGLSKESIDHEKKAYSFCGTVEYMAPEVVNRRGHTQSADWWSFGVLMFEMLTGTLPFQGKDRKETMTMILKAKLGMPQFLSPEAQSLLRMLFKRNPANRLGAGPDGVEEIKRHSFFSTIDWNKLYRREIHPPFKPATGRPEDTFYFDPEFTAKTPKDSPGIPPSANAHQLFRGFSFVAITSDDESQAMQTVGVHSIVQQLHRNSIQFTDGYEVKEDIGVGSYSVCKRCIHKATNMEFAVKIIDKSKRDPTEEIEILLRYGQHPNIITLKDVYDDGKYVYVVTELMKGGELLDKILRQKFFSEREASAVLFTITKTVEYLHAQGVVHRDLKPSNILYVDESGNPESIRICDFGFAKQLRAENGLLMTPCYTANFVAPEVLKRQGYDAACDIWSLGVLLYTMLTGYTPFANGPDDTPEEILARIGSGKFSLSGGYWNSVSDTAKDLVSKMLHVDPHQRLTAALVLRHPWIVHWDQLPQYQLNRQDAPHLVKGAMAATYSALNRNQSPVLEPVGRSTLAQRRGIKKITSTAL
From the text: as §1

BCRP = molecular target: T5, BCRP (Homo sapiens, UniProt Q9UNQ0); experiment: in vitro; conditions: dog, pH 7.4
T5 sequence (Q9UNQ0 1-655): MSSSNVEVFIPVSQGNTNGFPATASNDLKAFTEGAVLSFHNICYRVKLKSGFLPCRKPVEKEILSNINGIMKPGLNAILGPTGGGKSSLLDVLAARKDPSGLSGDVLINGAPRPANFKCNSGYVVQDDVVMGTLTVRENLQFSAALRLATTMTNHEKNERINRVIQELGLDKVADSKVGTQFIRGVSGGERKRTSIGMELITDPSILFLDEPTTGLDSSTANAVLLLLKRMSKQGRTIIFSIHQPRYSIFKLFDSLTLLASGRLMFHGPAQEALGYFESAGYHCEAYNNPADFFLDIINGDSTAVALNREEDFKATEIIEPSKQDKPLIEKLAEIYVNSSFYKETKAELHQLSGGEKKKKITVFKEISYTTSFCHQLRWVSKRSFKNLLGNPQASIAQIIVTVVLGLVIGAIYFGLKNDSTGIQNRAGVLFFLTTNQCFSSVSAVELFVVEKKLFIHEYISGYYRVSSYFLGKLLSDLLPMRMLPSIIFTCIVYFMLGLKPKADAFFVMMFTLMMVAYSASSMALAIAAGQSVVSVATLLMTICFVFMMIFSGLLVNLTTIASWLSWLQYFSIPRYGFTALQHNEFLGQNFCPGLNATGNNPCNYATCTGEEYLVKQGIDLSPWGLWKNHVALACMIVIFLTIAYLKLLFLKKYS

RSK1 = molecular target: T6, RSK1 (Homo sapiens, UniProt Q15418); experiment: RSK1-4 kinase assay (Eurofins KinaseProfiler, radiometric): RSK1; format: biochemical; conditions: approximately ATP Km
T6 construct: purchased Eurofins (KinaseProfiler service)
T6 sequence (Q15418 whole entry): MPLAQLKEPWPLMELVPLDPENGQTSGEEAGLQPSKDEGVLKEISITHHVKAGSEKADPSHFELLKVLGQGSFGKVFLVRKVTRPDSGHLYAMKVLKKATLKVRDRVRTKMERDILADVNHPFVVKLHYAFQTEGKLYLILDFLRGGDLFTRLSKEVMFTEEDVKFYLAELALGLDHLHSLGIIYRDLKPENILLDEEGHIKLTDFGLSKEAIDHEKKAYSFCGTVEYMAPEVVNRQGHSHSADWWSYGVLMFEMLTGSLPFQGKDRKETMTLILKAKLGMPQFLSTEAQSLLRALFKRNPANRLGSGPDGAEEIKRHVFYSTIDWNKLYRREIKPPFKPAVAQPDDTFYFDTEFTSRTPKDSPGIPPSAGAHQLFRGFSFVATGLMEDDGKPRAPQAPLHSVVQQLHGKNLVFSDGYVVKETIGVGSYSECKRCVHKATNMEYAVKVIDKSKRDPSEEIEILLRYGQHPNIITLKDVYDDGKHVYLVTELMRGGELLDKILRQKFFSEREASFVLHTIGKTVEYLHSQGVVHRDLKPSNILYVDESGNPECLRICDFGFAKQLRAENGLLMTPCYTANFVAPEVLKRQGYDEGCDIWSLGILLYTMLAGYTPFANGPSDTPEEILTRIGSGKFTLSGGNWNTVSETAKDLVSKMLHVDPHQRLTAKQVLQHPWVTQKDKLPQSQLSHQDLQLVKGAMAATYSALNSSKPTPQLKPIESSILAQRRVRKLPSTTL
From the text: as §1

[3] = Determination of CNS penetration in vivo, unbound brain to plasma ratio (Kpuu); conditions: male, Sprague Dawley, rat, iv, 1 mg/kg
GBM LN18 cells = experiment: In vitro cell viability assay (Cell Titre Glo, 72 hours); format: cell-based; conditions: Homo sapiens, LN-18, read-out: LN18 pIC50 (converted)
Summary of the method: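 LN18 glioblastoma cells were exposed to compound for 72 h in a 10-point concentration series up to 10 μM. Viability was read as cellular ATP by CellTiter-Glo luminescence, and % inhibition was calculated against the vehicle and inhibited control wells on each plate.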

[4] = system: pChk1(Ser296) in SW620 cells; experiment: pChk1(Ser296) sandwich ELISA, cell-based on-target kinase activity; conditions: Homo sapiens, read-out: SW620 pIC50 (converted)
Description: ELISA assays were performed as per the manufacturer's protocol. […] Selected compounds of the invention were tested as a 8-point concentration response up to a maximum concentration of either 1 μM, 3 μM or 10 μM. The percent (%) effect i.e. inhibition at each concentration of compound was calculated based on, and relative to, the amount of inhibition produced in the vehicle control and inhibited control wells contained within each plate.

human Chk1 kinase [5] = molecular target: T1, human Chk1 kinase; experiment: biochemical
[6] = system: 373 human wild-type kinases; experiment: Kinome selectivity, Eurofins KinaseProfiler kinase screen; format: biochemical; conditions: panel of 373 human wild-type kinases, approximately ATP Km, top concentration 10 μM
From the text: The radiometric kinase activity assays were run at approximately the ATP Km for each kinase.

[7] = SW-620, neocarzinostatin 7.5 μM, 2 hours

Chain of human Chk2 kinase (O96017 whole entry): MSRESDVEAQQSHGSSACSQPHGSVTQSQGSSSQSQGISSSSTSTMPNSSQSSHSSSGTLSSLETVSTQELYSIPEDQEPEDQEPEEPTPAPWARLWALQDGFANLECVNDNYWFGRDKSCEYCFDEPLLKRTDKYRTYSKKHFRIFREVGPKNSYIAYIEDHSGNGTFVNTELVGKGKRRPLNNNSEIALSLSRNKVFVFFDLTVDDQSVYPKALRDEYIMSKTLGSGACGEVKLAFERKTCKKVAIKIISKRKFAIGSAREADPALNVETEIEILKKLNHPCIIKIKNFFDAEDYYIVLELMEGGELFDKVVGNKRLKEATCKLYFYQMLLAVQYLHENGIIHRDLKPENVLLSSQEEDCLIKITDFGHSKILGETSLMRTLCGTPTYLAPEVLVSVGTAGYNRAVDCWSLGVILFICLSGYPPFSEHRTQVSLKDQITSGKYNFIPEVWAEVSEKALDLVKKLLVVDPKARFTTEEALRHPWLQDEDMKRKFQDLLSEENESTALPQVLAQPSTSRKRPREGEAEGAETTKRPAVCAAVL

Compound	IC50 (human Chk2 kinase)	Chk1 pIC50 (human Chk1 kinase [1])	IC50 (RSK4)	efflux ratio at 60 min, 1 μM [2]	Papp A→B at 60 min, 1 μM (in vitro)	IC50 (RSK3)	IC50 (RSK2)	efflux ratio at 60 min, 1 μM (BCRP)	IC50 (RSK1)	Kp uu at 0.25 h [3]	IC50 (GBM LN18 cells)	IC50 [4, 7]	IC50 (human Chk1 kinase [5])	Number of 372 kinases inhibited relative to Chk1 IC50 Within 10-fold [6]	Number of 372 kinases inhibited relative to Chk1 IC50 Within 100-fold [6]	IC50 ([4]; SW-620, 2 h, neocarzinostatin 7.5 μM)
CN(CCO)C1CCN(c2cccc(-n3cnc(Nc4cnc(C#N)cn4)c3)c2)C1 (single isomer, unassigned) [Example 110, 5-((1-(3-(3-((2-Hydroxyethyl)(methyl)amino)pyrrolidin-1-yl)phenyl)-1H-imidazol-4-yl)amino)pyrazine-2-carbonitrile]	10 to 100 µM	D (D: 7.5-8.0)	–	–	–	–	–	–	–	–	–	–	–	–	–	–
CC1(C)CN(C2CCN(c3ccc(-n4cnc(Nc5cnc(C#N)cn5)c4)cc3)C2)C1 (single isomer, unassigned) [Example 124, 5-((1-(4-(3-(3,3-Dimethylazetidin-1-yl)pyrrolidin-1-yl)phenyl)-1H-imidazol-4-yl)amino)pyrazine-2-carbonitrile]	1 to 10 µM	D (D: 7.5-8.0)	–	–	–	–	–	–	–	–	–	–	–	–	–	–
CC1CN(C2CCN(c3ccc(-n4cnc(Nc5cnc(C#N)cn5)c4)cc3)C2)C1 (single isomer, unassigned) [Example 126, 5-((1-(4-(3-(3-Methylazetidin-1-yl)pyrrolidin-1-yl)phenyl)-1H-imidazol-4-yl)amino)pyrazine-2-carbonitrile]	> 100 µM	D (D: 7.5-8.0)	–	–	–	–	–	–	–	–	–	–	–	–	–	–
COc1cc(C2(F)CCN(C)CC2)ccc1-c1cc(Nc2cnc(C#N)cn2)n[nH]1 [Comparator Ex. 4, 5-((5-(4-(4-Fluoro-1-methylpiperidin-4-yl)-2-methoxyphenyl)-1H-pyrazol-3-yl)amino)pyrazine-2-carbonitrile, reference compound]	–	–	0.058 µM	16	19 ×10⁻⁶ cm/s	0.035 µM	0.059 µM	12	0.329 µM	–	–	–	–	–	–	–
CN(C)[C@@H]1CCN(c2ccc(-n3cnc(Nc4cnc(C#N)cn4)c3)nc2)C1 [Example 50, (R)-5-((1-(5-(3-(Dimethylamino)pyrrolidin-1-yl)pyridin-2-yl)-1H-imidazol-4-yl)amino)pyrazine-2-carbonitrile]	–	–	3.14 µM	–	–	1.02 µM	6.67 µM	–	4.47 µM	0.5	< 1 µM	< 1 µM	–	–	–	–
C[C@@H]1C[C@@H](N2CCC2)CN1c1ccc(-n2cnc(Nc3cnc(C#N)cn3)c2)cc1 [Example 98, 5-((1-(4-((2R,4R)-4-(Azetidin-1-yl)-2-methylpyrrolidin-1-yl)phenyl)-1H-imidazol-4-yl)amino)pyrazine-2-carbonitrile]	–	–	2.47 µM	–	–	0.651 µM	0.786 µM	–	3.55 µM	0.8	< 1 µM	< 1 µM	–	–	–	–
CN1CCN(c2ccc(-n3cnc(Nc4cnc(C#N)cn4)c3)cc2)CC1 [Example 143, 5-((1-(4-(4-Methylpiperazin-1-yl)phenyl)-1H-imidazol-4-yl)amino)pyrazine-2-carbonitrile]	10 to 100 µM	–	> 10 µM	–	–	2.07 µM	3.04 µM	–	9.45 µM	0.4	–	–	0.01 to 0.0316 µM	3	10	–
CN[C@@H]1CCN(c2ccc(-n3cnc(Nc4cnc(C#N)cn4)c3)cc2)C1 [Example 155, (R)-5-((1-(4-(3-(Methylamino)pyrrolidin-1-yl)phenyl)-1H-imidazol-4-yl)amino)pyrazine-2-carbonitrile]	1 to 10 µM	–	1.96 µM	–	–	0.822 µM	1.12 µM	–	3.42 µM	–	< 1 µM	–	< 0.01 µM	1	6	< 1 µM
N#Cc1cnc(Nc2cn(-c3ccc(N4CCN(CCF)CC4)cc3)cn2)cn1 [Example 183, 5-((1-(4-(4-(2-Fluoroethyl)piperazin-1-yl)phenyl)-1H-imidazol-4-yl)amino)pyrazine-2-carbonitrile]	10 to 100 µM	–	–	0.7	84 ×10⁻⁶ cm/s	–	–	1.4	–	–	–	–	0.0316 to 0.1 µM	–	–	–
N#Cc1cnc(Nc2cn(-c3ccc(N4CCN(CCC(F)(F)F)CC4)cc3)cn2)cn1 [Example 184, 5-((1-(4-(4-(3,3,3-Trifluoropropyl)piperazin-1-yl)phenyl)-1H-imidazol-4-yl)amino)pyrazine-2-carbonitrile]	> 100 µM	–	–	0.9	43 ×10⁻⁶ cm/s	–	–	1.1	–	–	–	–	0.1 to 0.316 µM	–	–	–
